Test results from patent publication US20150202181A1, “Method of and compounds for the reduction of alcoholic hangover” (priority 2014, published 2015).
“Also recorded” adds a separate entry of the source.

Experiments:
rodents = conditions: cited from earlier work
[1] = tested on: acetaldehyde toxicity in rodents; conditions: cited from earlier work
aldehyde dehydrogenase = conditions: humans; cited from earlier work
[2] = chronic dosing for two years; cited from earlier work
humans = conditions: cited from earlier work
[3] = tested on: alcoholic hangover symptoms; test: Open-label and dose-finding studies in humans drinking alcoholic beverages
[4] = after oral administration; cited from earlier work
[5] = NAC compared with ALA; cited from earlier work

Row | SMILES | LD50 (rodents) [mg/kg] | Protective effect against acetaldehyde toxicity [1] | Effect on aldehyde dehydrogenase activity (aldehyde dehydrogenase) | No-observed-effect level [2] [mg/kg/day] | Tolerability (humans; diabetics given 600 mg/day for four years) | Doses required to decrease alcohol hangover symptoms as monotherapy, compared with the combination [3] | Dose that must be ingested for any noticeable reduction of alcohol hangover symptoms ([3]; monotherapy, ingested prior to imbibing alcoholic beverages) | Oral absorption [4] | LD50 (in words) (rodents) | Relative solubility (water versus fat) [5] | Outcome of high exposure (humans; human child, 8480 mg/kg over 72 hours)
1 | O=C(O)CCCC[C@@H]1CCSS1 [ALA, (R)-(+)-lipoic acid] | > 2000 | same effect | increasing aldehyde dehydrogenase activity | 60 | well-tolerated | much greater doses | at least 200 mg |  |  |  | 
2 | N[C@@H](CS)C(=O)O [L-cysteine] |  |  |  |  |  |  |  | not well-absorbed; also recorded: poorly absorbed |  |  | 
3 | CC(=O)N[C@@H](CS)C(=O)O [NAC, N-acetyl-L-cysteine] |  | robust protective effects |  |  |  | much greater doses |  |  | very high | more water soluble | survived with minor liver dysfunction
